Data from patent publication US20260022142A1, “MACROCYCLIC IMMUNOMODULATORS” (Bristol-Myers Squibb Company, priority 2022, published 2026).
Bridge positions count the residues as written; N and C are the ends. Square brackets hold non-standard residues; d marks the D form. Peptide text beside a SMILES is read from it. * marks the point of attachment. ξ: configuration not given here. Phe(4-COOH) = N[C@@H](Cc1ccc(C(=O)O)cc1)C(=O)O; Bip = N[C@@H](Cc1ccc(-c2ccccc2)cc1)C(=O)O; Phe(3-Me) = Cc1cccc(C[C@H](N)C(=O)O)c1; Cha = N[C@@H](CC1CCCCC1)C(=O)O; Cit = NC(=O)NCCC[C@H](N)C(=O)O; NMeN = CN[C@@H](CC(N)=O)C(=O)O; Thr(3ξ) = CC(O)[C@H](N)C(=O)O; hSer = N[C@@H](CCO)C(=O)O; Carboxymethyl = O=C(O)C*; NMeA = CN[C@@H](C)C(=O)O; Orn = NCCC[C@H](N)C(=O)O; Aun = NCCCCCCCCCCC(=O)O; Dab = NCC[C@H](N)C(=O)O; AEEA = NCCOCCOCC(=O)O

Molecular target: T1, PD-1/PD-L1 interaction (PE-labeled human PD-L1-Ig binding to Jurkat cell line over-expressing human PD-1) (Homo sapiens, UniProt Q15116)
T1 construct: expressed in transfected cells; host or cells: Jurkat
T1 sequence (Q15116 25-288): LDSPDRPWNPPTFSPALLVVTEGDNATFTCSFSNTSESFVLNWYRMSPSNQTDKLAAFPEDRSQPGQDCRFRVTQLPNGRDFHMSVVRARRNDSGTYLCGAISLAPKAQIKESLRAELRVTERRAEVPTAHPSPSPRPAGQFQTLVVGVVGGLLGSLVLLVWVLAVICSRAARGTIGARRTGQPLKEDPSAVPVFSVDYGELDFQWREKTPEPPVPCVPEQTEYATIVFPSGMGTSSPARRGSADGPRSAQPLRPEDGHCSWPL
Experiment: Jurkat-PD-1 Cell Binding High-Content Screening Assay (CBA)
Format: cell-based
Settings: Jurkat cell line over-expressing human PD-1; PE-labeled PD-L1-Ig 20 nM final; read-out: Jurkat hPD1-PDL1 IC50
In short: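 Binding of fluorescent PD-L1-Ig (20 nM final) to Jurkat-PD-1 cells was measured by automated imaging after 1 h, following a 2 h compound pre-treatment at 37° C.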

Point of comparison: `CC(C)C[C@H]1NC(=O)[C@H](CCCN)NC(=O)[C@H](C(C)C)NC(=O)[C@H](Cc2ccc(-c3ccccc3)cc2)NC(=O)[C@H](CCO)NC(=O)[C@H](Cc2c[nH]c3ccccc23)NC(=O)[C@H](CC(=O)O)NC(=O)[C@H](Cc2ccc(OCC(=O)O)cc2)NC(=O)[C@H](CCCNC(=N)N)NC(=O)CSC[C@@H](C(=O)N[C@@H](CCCN)C(=O)NCCCCCCCCCCC(=O)O)NC(=O)[C@H](C(C)O)NC(=O)[C@H](C(C)C)NC(=O)[C@H](CC2CCCCC2)NC(=O)[C@H](CCN)NC1=O` (stereo partly drawn) [Compound 3338] ({CH2CO}-RY(Carboxymethyl)DW[hSer][Bip]V[Orn][dL][Dab][Cha]V[Thr(3ξ)]C[Orn][Aun]-OH; thioether N-14), IC50 27.4 nM. Against it:
- Cc1cccc(C[C@@H]2NC(=O)[C@H](CC(=O)O)NC(=O)[C@H](Cc3ccc(OCC(=O)O)cc3)NC(=O)[C@H](CCCNC(=N)N)NC(=O)CSC[C@@H](C(=O)N[C@@H](CCN)C(=O)NCCCCCCCCCCC(=O)O)NC(=O)[C@H](CCCN)NC(=O)[C@H](C(C)C)NC(=O)[C@H](CC3CCCCC3)NC(=O)[C@H](CCN)NC(=O)[C@@H](CC(C)C)NC(=O)[C@H](CCCN)NC(=O)[C@H](CCCNC(N)=O)NC(=O)[C@H](Cc3ccc(-c4ccccc4)cc3)NC(=O)[C@H](C(C)C)NC2=O)c1 [Compound 3306] ({CH2CO}-RY(Carboxymethyl)D[Phe(3-Me)]V[Bip][Cit][Orn][dL][Dab][Cha]V[Orn]C[Dab][Aun]-OH; thioether N-14) — 3.5-fold lower, 7.9 nM
- Cc1cccc(C[C@@H]2NC(=O)[C@H](CC(=O)O)NC(=O)[C@H](Cc3ccc(OCC(=O)O)cc3)NC(=O)[C@H](CCCNC(=N)N)NC(=O)CSC[C@@H](C(=O)N[C@@H](CCN)C(=O)NCCCCCCCCCCC(=O)O)NC(=O)[C@H](C(C)O)NC(=O)[C@H](C(C)C)NC(=O)[C@H](CC3CCCCC3)NC(=O)[C@H](CCN)NC(=O)[C@@H](CC(C)C)NC(=O)[C@H](CCN)NC(=O)[C@H](CCCNC(N)=O)NC(=O)[C@H](Cc3ccc(-c4ccccc4)cc3)NC(=O)[C@H](C(C)C)NC2=O)c1 (stereo partly drawn) [Compound 3307] ({CH2CO}-RY(Carboxymethyl)D[Phe(3-Me)]V[Bip][Cit][Dab][dL][Dab][Cha]V[Thr(3ξ)]C[Dab][Aun]-OH; thioether N-14) — 3.7-fold lower, 7.4 nM
- Cc1cccc(C[C@@H]2NC(=O)[C@H](CC(=O)O)NC(=O)[C@H](Cc3ccc(OCC(=O)O)cc3)NC(=O)[C@H](CCCNC(=N)N)NC(=O)CSC[C@@H](C(=O)N[C@H](CC(N)=O)C(=O)NCCCCCCCCCCC(=O)O)NC(=O)[C@H](CCCN)NC(=O)[C@H](C(C)C)NC(=O)[C@H](CC3CCCCC3)NC(=O)[C@H](CCN)NC(=O)[C@@H](CC(C)C)NC(=O)[C@H](CCCN)NC(=O)[C@H](CCCNC(N)=O)NC(=O)[C@H](Cc3ccc(-c4ccccc4)cc3)NC(=O)[C@H](C(C)C)NC2=O)c1 [Compound 3311] ({CH2CO}-RY(Carboxymethyl)D[Phe(3-Me)]V[Bip][Cit][Orn][dL][Dab][Cha]V[Orn]C[dN][Aun]-OH; thioether N-14) — 6.2-fold lower, 4.4 nM
- Cc1cccc(C[C@@H]2NC(=O)[C@H](CC(=O)O)NC(=O)[C@H](Cc3ccc(OCC(=O)O)cc3)NC(=O)[C@H](C(C)O)NC(=O)CSC[C@@H](C(=O)N[C@H](CC(N)=O)C(=O)NCCCCCCCCCCC(=O)O)NC(=O)[C@H](CCCN)NC(=O)[C@H](C(C)C)NC(=O)[C@H](CC3CCCCC3)NC(=O)[C@H](CCN)NC(=O)[C@@H](CC(C)C)NC(=O)[C@H](CCCN)NC(=O)[C@H](CCCNC(N)=O)NC(=O)[C@H](Cc3ccc(-c4ccccc4)cc3)NC(=O)[C@H](C(C)C)NC2=O)c1 (stereo partly drawn) [Compound 3312] ({CH2CO}-[Thr(3ξ)]Y(Carboxymethyl)D[Phe(3-Me)]V[Bip][Cit][Orn][dL][Dab][Cha]V[Orn]C[dN][Aun]-OH; thioether N-14) — 6.2-fold lower, 4.4 nM
- Cc1cccc(C[C@@H]2NC(=O)[C@H](CC(=O)O)NC(=O)[C@H](Cc3ccc(OCC(=O)O)cc3)NC(=O)[C@H](CCCNC(=N)N)NC(=O)CSC[C@@H](C(=O)NCCCCCCCCCCC(=O)O)NC(=O)[C@H](CCCN)NC(=O)[C@H](C(C)C)NC(=O)[C@H](CC3CCCCC3)NC(=O)[C@H](CCN)NC(=O)[C@@H](CC(C)C)NC(=O)[C@H](CCCN)NC(=O)[C@H](C(C)C)NC(=O)[C@H](Cc3ccc(-c4ccccc4)cc3)NC(=O)[C@H](C(C)C)NC2=O)c1 [Compound 3316] ({CH2CO}-RY(Carboxymethyl)D[Phe(3-Me)]V[Bip]V[Orn][dL][Dab][Cha]V[Orn]C[Aun]-OH; thioether N-14) — 4.4-fold lower, 6.2 nM
- Cc1cccc(C[C@@H]2NC(=O)[C@H](CC(=O)O)NC(=O)[C@H](Cc3ccc(OCC(=O)O)cc3)NC(=O)[C@H](CCCNC(=N)N)NC(=O)CSC[C@@H](C(=O)N(C)[C@@H](C)C(=O)NCCOCCOCC(=O)NCCCCCCCCCCC(=O)O)NC(=O)[C@H](CCCN)NC(=O)[C@H](C(C)C)NC(=O)[C@H](CC3CCCCC3)NC(=O)[C@H](CCN)NC(=O)[C@@H](CC(C)C)NC(=O)[C@H](CCN)NC(=O)[C@H](C(C)C)NC(=O)[C@H](Cc3ccc(-c4ccccc4)cc3)NC(=O)[C@H](C(C)C)NC2=O)c1 [Compound 3319] ({CH2CO}-RY(Carboxymethyl)D[Phe(3-Me)]V[Bip]V[Dab][dL][Dab][Cha]V[Orn]C[NMeA][AEEA][Aun]-OH; thioether N-14) — 1.9-fold higher, 53.4 nM
- Cc1cccc(C[C@@H]2NC(=O)[C@H](CC(=O)O)NC(=O)[C@H](Cc3ccc(OCC(=O)O)cc3)NC(=O)[C@H](C(C)O)NC(=O)CSC[C@@H](C(=O)N(C)[C@@H](C)C(=O)NCCOCCOCC(=O)NCCCCCCCCCCC(=O)O)NC(=O)[C@H](CCCN)NC(=O)[C@H](C(C)C)NC(=O)[C@H](CC3CCCCC3)NC(=O)[C@H](CCN)NC(=O)[C@@H](CC(C)C)NC(=O)[C@H](CCN)NC(=O)[C@H](C(C)C)NC(=O)[C@H](Cc3ccc(-c4ccccc4)cc3)NC(=O)[C@H](C(C)C)NC2=O)c1 (stereo partly drawn) [Compound 3320] ({CH2CO}-[Thr(3ξ)]Y(Carboxymethyl)D[Phe(3-Me)]V[Bip]V[Dab][dL][Dab][Cha]V[Orn]C[NMeA][AEEA][Aun]-OH; thioether N-14) — 2.5-fold higher, 68.5 nM
- Cc1cccc(C[C@@H]2NC(=O)[C@H](CC(=O)O)NC(=O)[C@H](Cc3ccc(OCC(=O)O)cc3)NC(=O)[C@H](CCCNC(=N)N)NC(=O)CSC[C@@H](C(=O)N(C)[C@@H](CC(N)=O)C(=O)NCCOCCOCC(=O)NCCCCCCCCCCC(=O)O)NC(=O)[C@H](CCCN)NC(=O)[C@H](C(C)C)NC(=O)[C@H](CC3CCCCC3)NC(=O)[C@H](CCN)NC(=O)[C@@H](CC(C)C)NC(=O)[C@H](CCN)NC(=O)[C@H](C(C)C)NC(=O)[C@H](Cc3ccc(-c4ccccc4)cc3)NC(=O)[C@H](C(C)C)NC2=O)c1 [Compound 3321] ({CH2CO}-RY(Carboxymethyl)D[Phe(3-Me)]V[Bip]V[Dab][dL][Dab][Cha]V[Orn]C[NMeN][AEEA][Aun]-OH; thioether N-14) — 1.9-fold higher, 51 nM
- Cc1cccc(C[C@@H]2NC(=O)[C@H](CC(=O)O)NC(=O)[C@H](Cc3ccc(OCC(=O)O)cc3)NC(=O)[C@H](C(C)O)NC(=O)CSC[C@@H](C(=O)N(C)[C@@H](CC(N)=O)C(=O)NCCOCCOCC(=O)NCCCCCCCCCCC(=O)O)NC(=O)[C@H](CCCN)NC(=O)[C@H](C(C)C)NC(=O)[C@H](CC3CCCCC3)NC(=O)[C@H](CCN)NC(=O)[C@@H](CC(C)C)NC(=O)[C@H](CCN)NC(=O)[C@H](C(C)C)NC(=O)[C@H](Cc3ccc(-c4ccccc4)cc3)NC(=O)[C@H](C(C)C)NC2=O)c1 (stereo partly drawn) [Compound 3322] ({CH2CO}-[Thr(3ξ)]Y(Carboxymethyl)D[Phe(3-Me)]V[Bip]V[Dab][dL][Dab][Cha]V[Orn]C[NMeN][AEEA][Aun]-OH; thioether N-14) — within 1.5-fold, 36.8 nM
- Cc1cccc(C[C@@H]2NC(=O)[C@H](CC(=O)O)NC(=O)[C@H](Cc3ccc(C(=O)O)cc3)NC(=O)[C@H](Cc3ccc(OCC(=O)O)cc3)NC(=O)CSC[C@@H](C(=O)NCCOCCOCC(=O)NCCCCCCCCCCC(=O)O)NC(=O)[C@H](CCO)NC(=O)[C@H](C(C)C)NC(=O)[C@H](CC3CCCCC3)NC(=O)[C@H](CCN)NC(=O)[C@@H](CC(C)C)NC(=O)[C@H](CCCN)NC(=O)[C@H](C(C)C)NC(=O)[C@H](Cc3ccc(-c4ccccc4)cc3)NC(=O)[C@H](C(C)C)NC2=O)c1 [Compound 3327] ({CH2CO}-Y(Carboxymethyl)[Phe(4-COOH)]D[Phe(3-Me)]V[Bip]V[Orn][dL][Dab][Cha]V[hSer]C[AEEA][Aun]-OH; thioether N-14) — within 1.5-fold, 31.4 nM
- CC(=O)NCCCC[C@@H]1NC(=O)[C@H](Cc2ccc(-c3ccccc3)cc2)NC(=O)[C@H](C(C)C)NC(=O)[C@H](Cc2c[nH]c3ccccc23)NC(=O)[C@H](CC(=O)O)NC(=O)[C@H](Cc2ccc(OCC(=O)O)cc2)NC(=O)[C@H](CCCNC(=N)N)NC(=O)CSC[C@@H](C(=O)NCCOCCOCC(=O)NCCCCCCCCCCC(=O)O)NC(=O)[C@H](C(C)O)NC(=O)[C@H](C(C)C)NC(=O)[C@H](CC2CCCCC2)NC(=O)[C@H](CCN)NC(=O)[C@@H](CC(C)C)NC(=O)[C@H](CCCN)NC1=O (stereo partly drawn) [Compound 3335] ({CH2CO}-RY(Carboxymethyl)DWV[Bip]K(Ac)[Orn][dL][Dab][Cha]V[Thr(3ξ)]C[AEEA][Aun]-OH; thioether N-14) — 3.3-fold lower, 8.2 nM
- CC(C)C[C@H]1NC(=O)[C@H](CCCN)NC(=O)[C@H](C(C)C)NC(=O)[C@H](Cc2ccc(-c3ccccc3)cc2)NC(=O)[C@H](C(C)C)NC(=O)[C@H](Cc2c[nH]c3ccccc23)NC(=O)[C@H](CC(=O)O)NC(=O)[C@H](Cc2ccc(OCC(=O)O)cc2)NC(=O)[C@H](CCCNC(=N)N)NC(=O)CSC[C@@H](C(=O)N[C@@H](CCCN)C(=O)NCCCCCCCCCCC(=O)O)NC(=O)[C@H](CCO)NC(=O)[C@H](C(C)C)NC(=O)[C@H](CC2CCCCC2)NC(=O)[C@H](CCN)NC1=O [Compound 3339] ({CH2CO}-RY(Carboxymethyl)DWV[Bip]V[Orn][dL][Dab][Cha]V[hSer]C[Orn][Aun]-OH; thioether N-14) — 3.1-fold lower, 8.7 nM
